Article PMC8850458, “The AUTOTAC chemical biology platform for targeted protein degradation via the autophagy-lysosome system” (Nature Communications, 2022)
“And” between values parts separate entries of the source, which are not always exact repeats. Equal values may be shown once. Read-outs that look alike come from different tables or passages of the source.

Tests used:
tauP301L = tauP301L (Homo sapiens, UniProt P10636, P618L); test: In vitro pulldown assay of biotinylated PBA; type: binding; details: tauP301L stably expressed in SH-SY5Y cells
Protocol: A set of synthetic 12-mer peptides corresponding to the N-terminal sequences of the V-BiP (V[19]-[…]-biotin) and V-RGS4 (V^2-[…]-biotin) was C-terminally biotin-conjugated. Alternatively, biotinylated versions of YOK-1304, YT-8-8, YTK-1105, YOK-2204, and PBA were synthesized. To cross-link the above peptides with resin beads, biotin-conjugated peptides, and small molecule were mixed with high-capacity streptavidin agarose resin (Thermo Fisher Scientific) at a ratio of 0.5 mg of peptide per 1 mL of settled resin and incubated on a rotator at 4 °C overnight. After washing five times with PBS, the peptide/small molecule-bead conjugates were diluted with PBS at a 1:1 ratio. To prepare protein extracts, cells were collected by centrifugation and lysed by freezing and thawing at least 10 times in hypotonic buffer [10 mM KCl, 1.5 mM MgCl2, and 10 mM HEPES (pH 7.9)] with a protease inhibitor mix (Sigma). After centrifugation at 15,000 rpm 4 °C for 15 min, proteins were quantified using a BCA protein assay kit (Thermo Fisher Scientific). Total protein (200 μg) diluted in 300 μL of binding buffer [0.05% Tween-20, 10% glycerol, 0.2 M KCl, and 20 mM HEPES (pH 7.9)] were mixed with 50 μL of peptide/small molecule-bead resin and incubated at 4 °C for 2 h on a rotator. The protein-bound beads were collected by centrifugation at 2400 × g for 3 min and washed five times with binding buffer. […]

[1] = molecular target: high-molecular weight tau aggregates (Homo sapiens, UniProt P10636, P618L); test: In vivo oligomerization (aggregation) assay in SH-SY5Y-tauP301L cells; type: cell-based; details: okadaic acid 15 nM, compound 0.1 μM, 24 h
Protocol: HEK293T cells were transfected with P301L-tau-EGFP plasmid using Lipofectamine 2000. HEK293T and SHYSY5Y-tau cells were treated with p62-ZZ ligands for 24 h. After incubation on ice for 30 min for supernatant collection, the cells were lysed by a cycle of freezing/thawing and centrifuged at 13,000 g for 10 min. Protein concentration was determined using the Pierce BCA Protein Assay Kit (Thermo Fisher Scientific). Non-reducing 4X LDS sample buffer was added to sample lysate, followed by boiling at 100 °C for 10 min and samples were loaded on a 3% stacking and 8% separating SDS-PAGE. Immunoblotting assays were carried out using anti-GFP antibody (Sigma) to visualize the oligomeric complexes of Tau.

[2] = system: endogenous wild-type murine tau; details: for AVG (%) Insoluble mTau / AVG (%) Soluble mTau: control 100
[3] = PK parameters in ICR mice; type: in vivo; details: single injection
[4] = molecular target: T1, tau oligomers (htauP301L-BiFC bodies) and phosphorylated tau-BiFC (Homo sapiens, UniProt P10636, P618L); test: Immunohistochemistry of BiFC and AT8 fluorescence in brains of hTauP301L-BiFC mice; type: in vivo; details: Fig. 6k; for Sudan black B (BiFC fluorescence) CA1, per animal: control AVG 32.0843; for Sudan black B (BiFC fluorescence) Cortex, per animal: control AVG 98.7415
T1 construct: from tissue; host or cells: brain of 9-month-old hTauP301L-BiFC transgenic mice (C57BL/6)
Protocol: To evaluate the effect of PBA-1105 on tau aggregation in vivo, PBA-1105 was intraperitoneally administered to 9-month-old TauP301L-mice (n = 7 per group) with 20 or 50 mg/kg dosage. PBS containing 30% polyethylene glycol (PEG) was used as a vehicle. Twelve total administrations were performed for 4 weeks, three times a week.
Mice were anesthetized by intraperitoneal injection of 2% avertin (2,2,2-Tribromoethanol). Mice were then perfused with 0.9% saline. Brains were rapidly extracted and fixed with PBS containing 4% paraformaldehyde for 48 hr. For, cryprotection, the brains were infiltrated with PBS containing 30% sucrose at 4 °C until they sunk. For cryosectioning, the brains were embedded with O.C.T (Leica, Germany) and serially cut in the coronal plane into 30-μm thick sections on a cryostat microtome (Leica). Tissue slices were transferred to PBS containing 0.05% sodium azide as a preservative and stored at 4 °C.
To reduce autofluorescence of brain tissues, Sudan Black B stain was performed. Brain tissue slices were mounted onto glass slides and were stained with Sudan Black B solution (70 % ethanol containing 0.05% Sudan Black B) for 10 min. Then, to eliminate the excessive stain, the slides were dipped in PBS containing 0.1% Triton X-100 three times and washed with distilled water after. For nuclei counter-stain, brain tissues were stained with 0.5 μg/mL Hoechst in distilled water for 30 min. BiFC fluorescence (λex = 460−490 nm and λem = 500−550 nm) of brain slices were imaged using ZEISS® Axio Scan.Z1 (Zeiss, Germany). Fluorescence and total area of each puncta were measured using ImageJ (NIH, Bethesda).

T1 sequence (P10636 1-441 isoform P10636-8 P301L): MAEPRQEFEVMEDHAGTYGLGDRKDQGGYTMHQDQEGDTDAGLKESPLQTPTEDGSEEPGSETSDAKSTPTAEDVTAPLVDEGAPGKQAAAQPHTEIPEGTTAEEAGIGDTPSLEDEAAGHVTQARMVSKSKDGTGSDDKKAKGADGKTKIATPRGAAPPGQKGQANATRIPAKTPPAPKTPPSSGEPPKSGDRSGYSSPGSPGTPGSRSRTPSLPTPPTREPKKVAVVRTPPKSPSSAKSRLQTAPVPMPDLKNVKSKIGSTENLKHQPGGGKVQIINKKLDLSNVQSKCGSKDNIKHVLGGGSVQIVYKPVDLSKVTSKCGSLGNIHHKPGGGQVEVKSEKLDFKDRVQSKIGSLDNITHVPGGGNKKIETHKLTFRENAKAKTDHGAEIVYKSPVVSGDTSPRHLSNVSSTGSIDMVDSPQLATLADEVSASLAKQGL
Sequence of high-molecular weight tau aggregates (P10636 1-441 isoform P10636-8 P301L): as above
Sequence of tauP301L (P10636 1-441 isoform P10636-8 P301L): as above

| binding of tauP301L in pulldown (tauP301L) | Compound | high-molecular weight tau aggregates [1] | AVG (%) Insoluble mTau ([2]; 20 mg/kg) | AVG (%) Soluble mTau ([2]; 20 mg/kg) | AVG (%) Insoluble mTau ([2]; 50 mg/kg) | AVG (%) Soluble mTau ([2]; 50 mg/kg) | endogenous wild-type murine tau in detergent-soluble or -insoluble fractions ([2]; mouse, in vivo) | exposure [3] | Sudan black B AVG % CA1 ([4]; 20 mg/kg, control 100) | Sudan black B AVG % Cortex ([4]; 20 mg/kg, control 100) | Sudan black B (BiFC fluorescence) CA1, per animal ([4]; 20 mg/kg) | Sudan black B (BiFC fluorescence) Cortex, per animal ([4]; 20 mg/kg) | Sudan black B AVG % Cortex ([4]; 50 mg/kg, control 100) | Sudan black B (BiFC fluorescence) CA1, per animal ([4]; 50 mg/kg) | Sudan black B (BiFC fluorescence) Cortex, per animal ([4]; 50 mg/kg) |
| --- | --- | --- | --- | --- | --- | --- | --- | --- | --- | --- | --- | --- | --- | --- | --- |
| bound | O=C(O)CCCc1ccccc1 [4-PBA, 4-phenylbutyric acid] | – | – | – | – | – | – | – | – | – | – | – | – | – | – |
| – | O=C(CCCc1ccccc1)NCCOCCOCCOCCNCc1ccc(OCc2ccccc2)c(OCc2ccccc2)c1 [PBA-1105] | effectively eliminated high-molecular weight tau aggregates | 110.945% | 97.7163% | 56.7728% | 133.669% | did not degrade | good albeit rapidly metabolized exposure | 74.803% | 62.7215% | 19.17 and 25.62 and 30.19 and 23.53 and 13.28 and 12.8 and 43.41 | 48.97 and 40.445 and 49.503 and 29.786 and 68.378 and 118.96 and 77.483 | 38.7498% | 28.22 and 22.5 and 36.39 and 26.84 and 28.79 and 49.66 and 49.74 | 22.584 and 15.381 and 25.562 and 21.978 and 66.624 and 61.234 and 54.472 |
